Values quoted from earlier work, collected in US9290492B2, “Solid forms of antibiotics” (Laboratorios Senosiain S.A. de C.V., priority 2011, dated 2016).

route of excretion (in vivo) | excreted as the unchanged drug (total) (of an oral or intravenous dose) | excreted as the unchanged drug in feces (of an oral or intravenous dose, feces) [%] | excreted as the unchanged drug in urine (of an oral or intravenous dose, urine) [%] | bioavailability (in vivo) [%] | Compound
via the liver | Approximately 45% | ~25 | ~20 | – | COc1c(N2C[C@@H]3CCCN[C@@H]3C2)c(F)cc2c(=O)c(C(=O)O)cn(C3CC3)c12 [moxifloxacin, Moxifloxacin]
via urine | – | – | – | 99 | C[C@H]1COc2c(N3CCN(C)CC3)c(F)cc3c(=O)c(C(=O)O)cn1c23 [Levofloxacin]
